Reference: BindingDB's records for doi:10.1021/jm00020a029 (Merck Research Laboratories, 1995)
pEC50: −log10 of the molar value. Where a SMILES comes first, the peptide text is derived from it. [ ]: non-standard residue; d: D form. Phe(3,4-Cl2) = N[C@@H](Cc1ccc(Cl)c(Cl)c1)C(=O)O; Phe(4-Cl) = N[C@@H](Cc1ccc(Cl)cc1)C(=O)O; Phe(4-F) = N[C@@H](Cc1ccc(F)cc1)C(=O)O; Cha = N[C@@H](CC1CCCCC1)C(=O)O; Phg = N[C@H](C(=O)O)c1ccccc1; GABA = NCCCC(=O)O

Assay: Evaluated for the activation of human thrombin receptor measured by platelet aggregation

Row | SMILES | pEC50
1 | CC(C)C[C@H](NC(=O)[C@H](CC(C)C)NC(=O)[C@H](Cc1ccccc1)NC(=O)CCCN)C(=O)N[C@@H](CCCNC(=N)N)C(N)=O [(S)-2-[(S)-2-(4-Amino-butyrylamino)-3-phenyl-propionylamino]-4-methyl-pentanoic acid [(S)-1-((S)-1-carbamoyl-4-guanidino-butylcarbamoyl)-3-methyl-butyl]-amide] (H-[GABA]FLLR-NH2) | 3.14
2 | CC(C)C[C@H](NC(=O)[C@H](CC(C)C)NC(=O)[C@H](Cc1ccccc1)NC(=O)[C@H](N)CO)C(=O)N[C@@H](CCCNC(=N)N)C(N)=O [(S)-2-[(S)-2-((R)-2-Amino-3-hydroxy-propionylamino)-3-phenyl-propionylamino]-4-methyl-pentanoic acid [(S)-1-((S)-1-carbamoyl-4-guanidino-butylcarbamoyl)-3-methyl-butyl]-amide] | 3.10
3 | CC(C)C[C@H](NC(=O)[C@H](Cc1ccccc1)NC(=O)[C@@H](N)CO)C(=O)N[C@H](CC(C)C)C(=O)N[C@@H](CCCNC(=N)N)C(N)=O [(S)-2-[(S)-2-((S)-2-Amino-3-hydroxy-propionylamino)-3-phenyl-propionylamino]-4-methyl-pentanoic acid [(R)-1-((S)-1-carbamoyl-4-guanidino-butylcarbamoyl)-3-methyl-butyl]-amide] | 3.30
4 | CC(C)C[C@H](NC(=O)[C@H](Cc1ccccc1)NC(=O)[C@@H](N)CO)C(=O)N[C@@H](CC(C)C)C(=O)N[C@H](CCCNC(=N)N)C(N)=O [(S)-2-[(S)-2-((S)-2-Amino-3-hydroxy-propionylamino)-3-phenyl-propionylamino]-4-methyl-pentanoic acid [(S)-1-((R)-1-carbamoyl-4-guanidino-butylcarbamoyl)-3-methyl-butyl]-amide] | 3.96
5 | CC(C)C[C@H](NC(=O)[C@H](CC(C)C)NC(=O)[C@H](Cc1ccccc1)NC(=O)[C@@H](N)CO)C(=O)N[C@@H](C)C(N)=O [(S)-2-[(S)-2-((S)-2-Amino-3-hydroxy-propionylamino)-3-phenyl-propionylamino]-4-methyl-pentanoic acid [(S)-1-((S)-1-carbamoyl-ethylcarbamoyl)-3-methyl-butyl]-amide] (H-SFLLA-NH2) | 4.15
6 | CC(C)C[C@H](NC(=O)[C@H](C)NC(=O)[C@@H](N)CO)C(=O)N[C@@H](CC(C)C)C(=O)N[C@@H](CCCNC(=N)N)C(N)=O [(S)-2-[(S)-2-((S)-2-Amino-3-hydroxy-propionylamino)-propionylamino]-4-methyl-pentanoic acid [(S)-1-((S)-1-carbamoyl-4-guanidino-butylcarbamoyl)-3-methyl-butyl]-amide] (H-SALLR-NH2) | < 3.10
7 | CC(C)C[C@H](NC(=O)[C@H](CC(C)C)NC(=O)[C@@H](NC(=O)[C@H](C)N)c1ccccc1)C(=O)N[C@@H](CCCNC(=N)N)C(N)=O [(S)-2-[(S)-2-((S)-2-Amino-propionylamino)-2-phenyl-acetylamino]-4-methyl-pentanoic acid [(S)-1-((S)-1-carbamoyl-4-guanidino-butylcarbamoyl)-3-methyl-butyl]-amide] (H-A[Phg]LLR-NH2) | < 3.10

Now those with a higher pEC50, led by results:

Row | pEC50 | SMILES
8 | 4.40 | CC(C)C[C@H](NC(=O)[C@H](Cc1ccc(F)cc1)NC(=O)[C@H](C)N)C(=O)N[C@@H](CCCNC(=N)N)C(=O)N[C@@H](CCCNC(=N)N)C(N)=O [(S)-2-[(S)-2-((S)-2-Amino-propionylamino)-3-(4-fluoro-phenyl)-propionylamino]-4-methyl-pentanoic acid [(S)-1-((S)-1-carbamoyl-4-guanidino-butylcarbamoyl)-4-guanidino-butyl]-amide] (H-A[Phe(4-F)]LRR-NH2)
9 | 4.67 | COc1ccc(C[C@H](NC(=O)[C@H](C)N)C(=O)N[C@@H](CC(C)C)C(=O)N[C@@H](CC(C)C)C(=O)N[C@@H](CCCNC(=N)N)C(N)=O)cc1 [(S)-2-[(S)-2-((S)-2-Amino-propionylamino)-3-(4-methoxy-phenyl)-propionylamino]-4-methyl-pentanoic acid [(S)-1-((S)-1-carbamoyl-4-guanidino-butylcarbamoyl)-3-methyl-butyl]-amide] (H-AY(Me)LLR-NH2)
10 | 4.82 | CC(C)C[C@H](NC(=O)[C@H](Cc1ccccc1)NC(=O)[C@@H](N)CO)C(=O)N[C@@H](C)C(=O)N[C@@H](CCCNC(=N)N)C(N)=O [(S)-2-[(S)-2-((S)-2-Amino-3-hydroxy-propionylamino)-3-phenyl-propionylamino]-4-methyl-pentanoic acid [(S)-1-((S)-1-carbamoyl-4-guanidino-butylcarbamoyl)-ethyl]-amide] (H-SFLAR-NH2)
11 | 5.92 | CC(C)C[C@H](NC(=O)[C@H](CC(C)C)NC(=O)[C@H](Cc1ccccc1)NC(=O)CN)C(=O)N[C@@H](CCCNC(=N)N)C(N)=O [(S)-2-[(S)-2-(2-Amino-acetylamino)-3-phenyl-propionylamino]-4-methyl-pentanoic acid [(S)-1-((S)-1-carbamoyl-4-guanidino-butylcarbamoyl)-3-methyl-butyl]-amide] (H-GFLLR-NH2)
12 | 6.00 | CC(C)C[C@H](NC(=O)[C@H](CC(C)C)NC(=O)[C@H](Cc1ccccc1)NC(=O)[C@@H](N)CO)C(=O)N[C@@H](CCCNC(=N)N)C(N)=O [(S)-2-[(S)-2-((S)-2-Amino-3-hydroxy-propionylamino)-3-phenyl-propionylamino]-4-methyl-pentanoic acid [(S)-1-((S)-1-carbamoyl-4-guanidino-butylcarbamoyl)-3-methyl-butyl]-amide]
13 | 6.15 | CC(C)C[C@H](NC(=O)[C@H](CC(C)C)NC(=O)[C@H](Cc1ccc(Cl)cc1)NC(=O)[C@H](C)N)C(=O)N[C@@H](CCCNC(=N)N)C(N)=O [(S)-2-[(S)-2-((S)-2-Amino-propionylamino)-3-(4-chloro-phenyl)-propionylamino]-4-methyl-pentanoic acid [(S)-1-((S)-1-carbamoyl-4-guanidino-butylcarbamoyl)-3-methyl-butyl]-amide] (H-A[Phe(4-Cl)]LLR-NH2)
14 | 6.30 | CC(C)C[C@H](NC(=O)[C@H](CC(C)C)NC(=O)[C@H](Cc1ccc(Cl)c(Cl)c1)NC(=O)[C@H](C)N)C(=O)N[C@@H](CCCNC(=N)N)C(N)=O [(S)-2-[(S)-2-((S)-2-Amino-propionylamino)-3-(3,4-dichloro-phenyl)-propionylamino]-4-methyl-pentanoic acid [(S)-1-((S)-1-carbamoyl-4-guanidino-butylcarbamoyl)-3-methyl-butyl]-amide] (H-A[Phe(3,4-Cl2)]LLR-NH2)
15 | 6.70 | CC(C)C[C@H](NC(=O)[C@H](CC(C)C)NC(=O)[C@H](Cc1ccc(F)cc1)NC(=O)[C@H](C)N)C(=O)N[C@@H](CCCNC(=N)N)C(N)=O [(S)-2-[(S)-2-((S)-2-Amino-propionylamino)-3-(4-fluoro-phenyl)-propionylamino]-4-methyl-pentanoic acid [(S)-1-((S)-1-carbamoyl-4-guanidino-butylcarbamoyl)-3-methyl-butyl]-amide] (H-A[Phe(4-F)]LLR-NH2)
16 | 6.85 | CC(C)C[C@H](NC(=O)[C@H](Cc1ccc(F)cc1)NC(=O)[C@H](C)N)C(=O)N[C@@H](CC1CCCCC1)C(=O)N[C@@H](CCCNC(=N)N)C(N)=O [(S)-2-[(S)-2-((S)-2-Amino-propionylamino)-3-(4-fluoro-phenyl)-propionylamino]-4-methyl-pentanoic acid [(S)-1-((S)-1-carbamoyl-4-guanidino-butylcarbamoyl)-2-cyclohexyl-ethyl]-amide] (H-A[Phe(4-F)]L[Cha]R-NH2)
